These results are taken from patent US12589160B2, “Peptide-derived therapeutics targeting KDM5C for the treatment of cancer” (NUVOBIO CORPORATION, priority 2019, dated 2026).

Series [1] has as its system H3K4me3 levels in HCT 116 cells. Put plainly: Histone H3K4me3 status by western blot of histone extracts. In kind it is cell-based. The following applies: for global H3K4me3 levels: HCT 116. Here is the method:
FIG. 9. Comparison of KDM5 inhibitors, EP4-TAT and CPI-455. […] (B) Relative H3K4me3 levels were monitored in histone extracts from HCT 116 cells.
The EP4-TAT inhibitor from all the above experiments were tested for histone methylation status in HCT 116 cells. 3×10^6 cells were plated in 10 cm dish and incubated overnight. Cells were then treated with the inhibitors at various concentrations (0.001 to 15 μM). Cells (5×10^6 cells/mL), 24 hr of post dosing, were collected in 15 mL falcon tube and centrifuged at 300×g for 10 min. The supernatant was discarded and the cells are washed with iced cold PBS. The cell pellet is flash-frozen in liquid nitrogen and stored at −80° C. Histone isolation is done using standard protocol. To summarize, cells were re-suspended in 1 mL hypotonic lysis buffer (10 mM Tris-HCl pH 8, 1 mM KCl, 1.5 mM MgCl2 and 1 mM DTT) containing protease inhibitor. The cells were transferred to 1.5 mL tube and incubated for 30 min on rotor at 4° C. to promote hypotonic swelling and lysis. The intact nuclei are collected by centrifugation at 10,000×g for 10 min in a cooled tabletop centrifuge. The supernatant is entirely discarded and pellets were re-suspended completely in 600 μL 0.4N H2SO4 and incubated overnight on rotor at 4° C. The nuclear debris were removed by centrifugation at 16,000×g for 10 min. The supernatant containing the histones were transferred to a fresh 1.5 mL tube and precipitated by adding 195 μL TCA (33%) drop by drop. The reaction is incubated at 4° C. overnight under rotation. The histones were pelleted by centrifugation at 16,000×g for 10 min. After complete removal of the supernatant carefully, the histone pellets were washed with ice-cold acetone to remove the left-over acids without disturbing the pellet. Finally, the pellets were air dried for 30 min at room temperature. The histone pellets were dissolved in 100 μL milliQ water and stored frozen at −20° C. Samples of 1, 3 and 5 μL of histones were separated on 15% SDS-PAGE gel and stained with Coomassie Brilliant Blue and characterized on the quality and concentration of the histone. The locations of the linker histone H1 and the core histones H3, H2B, H2A and H4 were noted.
For western blot, of total of 1 μL of histones were separated on 15% SDS-PAGE and transferred overnight at 15V on PVDF membrane. Following blocking with 5% nonfat dry milk in 1×TBST for 1 hr, the membrane containing histones lanes treated with inhibitor, were probed with H3K4Me3 (Abcam) primary antibody (1:2500) in 1×PBST. Both the membranes were incubated overnight at 4° C. under rotation. […] Histone proteins were detected by Supersignal™ West Pico PLUS Chemiluminescent substrate (ThermoFisher Scientific) using the Chemidoc XRS+ imaging system (BioRad). […]

The subject of a further series is KDM5. The following applies: given as 'in vivo'; Vinogradova et al., 2016; read-out: IC50 of KDM5 inhibition; cited from earlier work.
For series [2], the system named is HCT 116 cells. In words: Cell viability, resazurin reduction assay. The following applies: for loss of cell viability: HCT 116, 10 μM, cell penetrating peptide by itself. In kind it is cell-based. The protocol:
(§1) FIG. 7. Cellular EP4 inhibitor delivery and viability. (A) Diagrammatic representation of EP4 inhibitor peptide showing N-terminally tagged 6-carboxyfluorescein and C-terminally tagged TAT cell delivery peptide. (B) Immunofluorescence microscopy showing internalization of EP4-TAT peptide (shown in green) to HCT 116 cells imaged 24 hr post-treatment with inhibitor. (C) Cell viability following 10 μM treatment of EP4 peptide conjugated to cell penetrating peptides, TAT, PR9 and CPP.
Cell viability was measured using the Resazurin reduction assay which indirectly quantifies living cells through the metabolically active reduction of resazurin to fluorescent resorufin. This assay allows to maintain cells viability and, therefore, to monitor cell growth with time. Exponentially growing cells were seeded into 96-well plates at the density of 2.0×10^4 cells/mL and incubated overnight. The media was replaced with fresh media prior to inhibitor treatment. Cells were treated with […] of inhibitor peptide for 24 hr. The inhibitor peptide was diluted in the cell culture media (DMEM −/−) in the absence of serum from a 5 mM stock. All the treated cells were compared to the control (TAT alone peptide with equivalent quantity of DMSO) which were considered as 100% viable. One set of wells also prepared with medium only for background subtracting and instrument gain adjustment. The experiments were carried out in triplicate and expressed as mean±SD. A 10% resazurin solution (0.15 mg/ml stock dissolved in PBS, filter sterilized and stored protected from light at 4° C.) was then added to each well and incubated for 2 hr. The fluorescence was recorded using a multiwell plate reader (Perkin Elmer) at Ex. 560 nm and Em. 610 nm.
The cell penetrating peptide tagged EP4 inhibitors are then tested for loss of cell viability on colorectal carcinoma HCT 116 cell line at a 10 μM dose (FIG. 7C).

Series [3] relates to HCT 116 cells. In words: Flow cytometry, PI staining (subG1 / apoptosis). Conditions: HCT 116, 2 μM. In kind it is cell-based. The protocol: FIG. 8. Global cell cycle distribution in EP4-TAT treated HCT 116 cells. EP4-TAT increases global H3K4me3 levels in HCT 116 cells. (A) Two-parameter flow cytometric analysis of BrdU incorporation and DNA content was performed following a 24 hr exposure of 2 μM and 5 μM EP4-TAT to HCT 116 cells. (B) The proportion of propidium iodine stained cells were represented in each phase of the cell cycle cell cycle and (C) dose-response correlation of BrdU positive cells were represented. These values are expressed relative to untreated controls. Each value in B, C represents the mean (+/−SEM) determined from 3 independent experiments.
A total of 0.3×10^6 HCT 116 cells were plated in 6 well-plate and incubated overnight. Cells were treated with the inhibitor, DMSO and TAT alone controls. For each condition, approximately 1×10^6 HCT 116 cells were collected along with the floating cells in the media by centrifugation at 300×g for 10 min. The cells were then washed with 5 mL of ice-cold PBS and re-suspended in 0.5 mL of ice-cold PBS. […] The PI-treated cells were incubated at 37° C. for 30 min and then analyzed by a flow cytometry (BD Accuri™ C6 Plus). […]
To determine whether loss in cell viability was associated with increased apoptosis, HCT 116 cells were treated with 2 μM of EP4-TAT and analyzed by PI staining.
For orientation: In flow cytometry, cells or beads pass a laser one at a time.

For series [4], the system named is HCT 116 cells. In words: Internalization of FITC-labelled peptides (fluorescence microscopy). Format: cell-based. The following applies: HCT 116, 10 μM, 24 hr. Here is the method: as §1
To evaluate the internalization of FITC-labelled peptides, exponentially growing HCT 116 cells were seeded on 6 well plate at a density of 2×10^5 cells per well and incubated overnight. After overnight incubation, the media (DMEM with penstrep and 10% FBS) was replaced with fresh media supplemented with 10 μM FITC-labelled inhibitor peptides. Following the incubation (24 hr), cells were washed three times with ice cold PBS to remove the excess extracellular complexes. Cells were then stained with Hoechst dye (1:2000 dilution from 10 mg/mL stock in PBS) directly adding sufficient staining solution to the well. Cells were incubated for 10 min with the dye, protected from light. The staining solution is discarded and the cells were washed 3 times with PBS and imaged directly under fluorescent microscope.
Our EP4 KDM5C inhibitor peptide were tested for a decrease in cell viability. […]

The subject of another series is NCI60 cancer cell lines. Put plainly: NCI60 cancer panel screen (SRB staining). In kind it is cell-based. The following applies: 48 h, normalized to TAT-alone; SNB-75, A498, RXF393, UO-31, HOP-92, NCI-226, EKVX. Here is the method:
FIG. 10. NCI60 cancer panel screen of EP4-TAT. EP4-TAT and TAT-alone peptides were sent to the National Cancer Institute—Developmental Therapeutics program for screening effect on cell growth on the NCI60 cancer panel. Cell growth was monitored post-treatment with peptide in a dose-responsive manner (n=4). EP4-TAT effects were normalized to TAT-alone effects to control for delivery peptide. Following drug addition, the plates were incubated for an additional 48 hours at 37° C., 5% CO2, 95% air, and 100% relative humidity. Cell growth was monitored by Sulforhodamine B (SRB) staining. GI50 values are defined at the concentration of EP4-TAT that decreased cell growth by 50%.
Following the receipt at the NCI, cell-active EP4-TAT was be tested for its effects on cell viability in a dose-responsive manner in the complete panel. The effect of EP4-TAT on cell viability was carried out using Sulforhodamine B (SRB) staining in all 60 cell lines (n=4). Using several measurements [time zero (Tz), control growth (C), and growth at the five inhibitor concentrations (Ti)], the percentage growth will be calculated at each inhibition concentration. […]

One may read the IC50 as the concentration that gives 50% inhibition. As for CPI-455 [reference compound], in series [1], the “global H3K4me3 levels” value is on record as “increase global H3K4me3 levels”. Besides, the IC50 in the series on KDM5 is around 25 µM.
Take FFLIPKGRRRRRRRRR [PR9]: the “loss of cell viability” value in the series on HCT 116 cells [2] worked out at 30%.
As to “RRWRRWRRWRR [CPP, cell penetrating peptide, chemically synthesized, cationic]”, the “loss of cell viability” value with HCT 116 cells [2] stood at 50%.
Regarding “TEDSKTHHH(SEQ ID NO: 4){6-aminohexanoic acid}GRKKRRQRRRPPQ(SEQ ID NO: 45) (TEDSKTHHHGRKKRRQRRRPPQ) [EP4-TAT]”, in the series with HCT 116 cells [3], the “percentage of subG1 peak” value is recorded as 52.8%. The “global H3K4me3 levels” value in series [1] is “increase global H3K4me3 levels”. The “demethylation of histone H3K4 tri-methylation” value in series [1] (HCT 116, 25 nM) is recorded as “inhibited”. Moreover, the “cellular KDM5C inhibition compared with CPI-455” value in series [1] (HCT 116, relative H3K4me3 levels) is “more effective”. Further, the “loss of cell viability (comparison of cell penetrating peptide tags)” value in the series with HCT 116 cells [2] (HCT 116, 10 μM dose) is “maximum and consistent loss of cell viability”. In the series on HCT 116 cells [4], the cellular internalization result was “internalization”. The “growth inhibitory (GI50) effect” value in the series on NCI60 cancer cell lines is “growth inhibitory (GI50) effect in 7 lines”.
